# Experimental data as given in US11168319B1, “Plant cell culture” (Inari Agriculture Technology, Inc., priority 2017, dated 2021).
# “And” between values parts separate entries of the source, which are not always exact repeats. Equal entries are not always repeated. Where two headings read alike, the source gives them in different places.
# Experiments:
# maize B73 protoplasts = conditions: for Viability (%): 100 mM Ca; for protoplast viability: 288 hours, YPIM B- medium
# Experimental: Separate suspensions of maize B73 and A188 protoplasts (2×10^5 cells per milliliter) were prepared in YPIM B-liquid medium containing various combinations of the added salts calcium chloride, potassium ascorbate, and magnesium chloride or magnesium sulfate. One-half milliliter aliquots of the suspensions were dispensed into a 24-well microtiter plate in the arrangement shown in Table 2, which lists the concentrations of calcium chloride (“Ca”), potassium ascorbate (“A”), and magnesium chloride (“MgCl2”) or magnesium sulfate (“MgSO4”) in millimolar values.
# Viability was judged by Evans blue staining and visualization under a light microscope.
# Separate suspensions of maize B73, winter wheat, soy, and strawberry protoplasts (2×10^5 cells per milliliter) were prepared in YPIM B-liquid medium containing calcium chloride at 0, 50, or 100 millimolar. One-half milliliter aliquots of the suspensions were dispensed into a 24-well microtiter plate.
# Viability at day 8 of culture was judged by visualization under a light microscope.
# Viability at day 13 was judged by Evans blue staining and visualization under a light microscope.
# (§1) Separate suspensions of maize B73 protoplasts (2×10^5 cells per milliliter) were prepared in PIM B-liquid medium (identical to YPIM B-medium except with the 6-benzylaminopurine substituted with 0.022 milligrams/L thidiazuron) containing calcium chloride added at 0, 5, 20, 40, 70, or 100 millimolar. One-half milliliter aliquots of the suspensions were dispensed into a 24-well microtiter plate.
# Viability was judged by visualization under a light microscope at day 7 and at day 14 of culture.
# as §1, with “B73 and A188” for “B73”, “0” for “0, 5, 20, 40, 70,”, “50” for “100”
# (§2) Viability was judged by visualization under a light microscope.
# Separate suspensions of maize B73 and A188 protoplasts (2×10^5 cells per milliliter) were prepared in YPIM B-liquid medium containing (a) calcium chloride added at 100 millimolar, or (b) 1 millimolar glutathione, or (c) no added calcium or glutathione. One-milliliter aliquots of the suspensions were dispensed into a 24-well microtiter plate. At 16, 40, 64, and 136 hours of culture, 50-microliter samples were taken for hemocytometer analysis from each well; for the plates containing maize A188 protoplasts, parallel 50-microliter samples were taken from a replicate well at 16, 40, and 64 hours of culture for quantification using a Cellometer cell counter (Nexcelom Bioscience LLC, Lawrence, Mass.).
# Viability was determined by Evans blue staining and quantification using a hemocytometer. Under conditions with high concentrations of calcium, Evans blue can create precipitates that interfere with cell counting; to prevent this, 5 microliters of an EDTA solution was added to the samples from the wells containing 100 millimolar calcium chloride immediately prior to staining.
# soybean protoplasts = assay: Protoplast viability (Evans blue staining, light microscope); format: cell-based
# [1] = test system: winter wheat, soy, and strawberry protoplasts; assay: Protoplast viability by light microscope, other species; format: cell-based; conditions: day 8, 0, 50 or 100 millimolar calcium
# [2] = test system: maize protoplasts (A188, B73, B104, HiIIA, HiIIB); assay: Protoplast viability by light microscope, five maize germplasm lines; format: cell-based; conditions: 34 hours, across the five maize lines
# Description: as §2
# maize A188 protoplasts = assay: Signs of cell division by microscopy under 5% or 21% oxygen; format: cell-based; conditions: day 8, 100 millimolar Ca^2+ in YPIM B-, 5% oxygen vs 21% oxygen by volume
# Experimental: (§3) Cell division was monitored, e.g., by microscopic observations. […] Evidence of cell division was observed by microscopy and included increased cell or protoplast size, bulging membranes, and large groups of organelles occupying the separating daughter cells. Quantification of cell division was carried out using fluorescent staining. Cells were treated with the thymidine analogue 5-ethynyl-2′-deoxyuridine (EdU), which is incorporated into DNA during S-phase and can be fluorescently activated using a fluorochrome that has been conjugated to an azide molecule. Cells that are the result of cellular division in the presence of EdU were identified by the resulting green fluorescent signal, which can be quantified by various means, e.g., with a microplate reader, cell counter, or cell sorter.
# In one experiment, maize A188 protoplasts were grown under either 5% or 21% oxygen by volume in YPIM B-liquid medium containing 100 millimolar Ca^2+.
# maize HiIIA protoplasts = assay: Cell division rate by EdU staining (% EdU); format: cell-based; conditions: 100 mM Ca^2+
# Experimental: as §3
# In a separate experiment, maize HiIIA protoplasts were grown in 24-well plates using YPIM B-liquid medium containing 100 millimolar Ca^2+ and 20 micromolar EdU. Identical plates were incubated under hypoxia (5% oxygen by volume, 26 degrees Celsius, 80% relative humidity) or ambient oxygen (21% oxygen by volume, 26 degrees Celsius, 80% relative humidity). Entire wells (250 microliters) were taken for EdU detection at four time points. The contents of each well was centrifuged and the pellet subjected to the Click-iT™ EdU Alexa Fluor™ 488 Imaging Kit (catalogue number C10337, Thermo Fisher Scientific, Waltham, Mass.) fluorescent labelling protocol. The labelled protoplasts were resuspended in YPIM B-medium and samples analyzed on a Nexcelom Cellometer (Nexcelom Bioscience LLC, Lawrence, Mass.). This assay was developed to detect the EdU signal from the nucleus of a cell resulting from cell division, as well as the fluorescent signal from chloroplasts as a measure of total cell count. Results are provided in Table 4 as a percentage of cells displaying the EdU signal relative to the total cell count (“% EdU”).
# maize B104 protoplasts = assay: Cell division rate by EdU staining (% EdU); conditions: O2 5%, Ca^2+ 100 mM, glutathione 0 mM, 90 h
# Experimental: Cell division rates are expressed as “% EdU” (percentage of cells displaying the EdU signal relative to the total cell count).
# Cell division was monitored, e.g., by microscopic observations. […] Evidence of cell division was observed by microscopy and included increased cell or protoplast size, bulging membranes, and large groups of organelles occupying the separating daughter cells. Quantification of cell division was carried out using fluorescent staining. […] Cells that are the result of cellular division in the presence of EdU were identified by the resulting green fluorescent signal, which can be quantified by various means, e.g., with a microplate reader, cell counter, or cell sorter.
# Entire wells (1000 microliters) were taken for EdU detection at three time points; analyses were of duplicate samples of each of two replicate wells.
# [3] = day 13, 50 millimolar calcium, Evans blue
structure (smiles),measurement,setting,value
[Ca+2].[Cl-].[Cl-] [calcium chloride],Viability (%),"maize B73 protoplasts; 0 hours, hemocytometer",90%
same,Viability (%),maize B73 protoplasts; 16 hours,65%
same,Viability (%),maize B73 protoplasts; 40 hours,57%
same,Viability (%),maize B73 protoplasts; 64 hours,58%
same,Viability (%),maize B73 protoplasts; 136 hours,30%
same,protoplast viability,maize B73 protoplasts; 50 mM added salt,almost all dead
same,protoplast viability,maize B73 protoplasts; 100 mM added salt,10-20%
same,viability and cell division,"maize B73 protoplasts; PIM B- medium, 100 millimolar calcium",strongest enhanced viability and cell division
same,viability,"maize B73 protoplasts; day 6, PIM B- medium, 50 millimolar calcium",still contained viable cells
same,viability and cell division,"maize B73 protoplasts; day 7, PIM B- medium, 40, 70, or 100 millimolar calcium","formed clusters of viable, healthy cells with cell division occurring"
same,viability,"maize B73 protoplasts; day 7, PIM B- medium, less than 40 millimolar calcium",dead
same,viability,"maize B73 protoplasts; day 8, 50 millimolar calcium, YPIM B-, light microscope",30%
same,viability,"maize B73 protoplasts; day 8, 100 millimolar calcium, YPIM B-, light microscope",80%
same,viability,maize B73 protoplasts; [3],0%
same,viability of the maize protoplasts (second statement in the sentence),maize B73 protoplasts; [3],50%
same,viability,"maize B73 protoplasts; day 13, 100 millimolar calcium, Evans blue",10%
same,viability,"soybean protoplasts; day 13, 50 millimolar calcium",50%
same,viability,"soybean protoplasts; day 13, 100 millimolar calcium",50%
same,viability,[1],no large differences
same,viability,[2]; 50 millimolar calcium,about 55%
same,viability,[2]; 100 millimolar calcium,about 70%
same,signs of cell division,maize A188 protoplasts,many more protoplasts displaying signs of cell division
same,% EdU,"maize HiIIA protoplasts; 5% oxygen by volume, 93 hours",12%
same,% EdU,"maize HiIIA protoplasts; 5% oxygen by volume, 117 hours",19%
same,% EdU,"maize HiIIA protoplasts; 5% oxygen by volume, 165 hours, listed as Ca^2+",19% and 15%
same,% EdU,"maize HiIIA protoplasts; 21% oxygen by volume, 93 hours",6.5%
same,% EdU,"maize HiIIA protoplasts; 21% oxygen by volume, 117 hours, listed as Ca^2+",6.9% and 8.0%
same,% EdU,"maize HiIIA protoplasts; 21% oxygen by volume, 141 hours, listed as Ca^2+",13% and 4.8%
same,% EdU,"maize HiIIA protoplasts; 21% oxygen by volume, 165 hours, listed as Ca^2+",5.0% and 0.0%
same,plant protoplast viability,plant protoplasts; about 40 millimolar or about 50 millimolar,Even higher levels of plant protoplast viability
same,protoplast viability,"plant protoplasts; between or about 50 to about 100 millimolar, several titration experiments",greatest improvement in protoplast viability
same,plant protoplast viability,plant protoplasts; culture medium contains about 30 millimolar,Beneficial effects
same,EdU staining mean %,maize B104 protoplasts,21.9%
